Data reported in US8716226B2, “3,5 phenyl-substituted beta amino acid derivatives as integrin antagonists” (Saint Louis University, priority 2012, dated 2014).

Tests used:
αvβ5 = molecular target: T1, αvβ5 (Homo sapiens, UniProt P06756+P18084); assay: 293/b5 cell adhesion assay for αvβ5 function; assay type: cell-based; conditions: 293/b5 cells, adhesion to human vitronectin
T1 construct: expressed in transfected cells; host or cells: HEK 293 (293/b5)
Description: 293/b5 Cell Adhesion Assay for αvβ5 Function.
(§1) Purified human vitronectin (Calbiochem/EMD Biosciences) diluted to 0.25 μg/ml in TS buffer (25 mM Tris 7.4, 150 mM NaCl) was added to wells (100 μl/well) of a 96-well microtiter plate (Immulon 2HB 96-well; VWR Scientific) and incubated overnight at 4° C. The solution in each well was then replaced with 200 μl of blocking buffer (TS with 1% bovine serum albumin), and the plate incubated for 1 hr at 37° C. Compounds were diluted in test tubes to 2× the peak testing concentration in cell adhesion buffer consisting of Hanks Buffered Salts Solution (HBSS, cation-free, Sigma), 0.1% bovine serum albumin, 25 mM HEPES, and 200 μM MnCl2. […] The cells were washed with the cell adhesion buffer, counted using a hemocytometer, centrifuged and resuspended in cell adhesion buffer at 3×10^6 cells/ml. […] Remaining attached cells were detected by addition of 100 μl/well p-nitrophenylphosphate (Sigma) solution (15 mg tablet dissolved in 25 ml 50 mM NaAcetate, pH5; 0.5% Triton-X-100), incubation for 30 min at 37° C., and then addition of 50 μl/well 1N NaOH to stop the enzyme reaction. Plates were read by colorimetric detection at 405 nm wavelength using a Tecan Safire II plate reader. Concentration-response curves were constructed by non-linear regression (best fit) analysis, and IC50 values were calculated for each compound. […]

αvβ3 = molecular target: T2, αvβ3 (Homo sapiens, UniProt P05106+P06756); assay: 293/b3 cell adhesion assay for αvβ3 function; assay type: cell-based; conditions: 293/b3 cells, adhesion to human vitronectin
T2 construct: expressed in transfected cells; host or cells: HEK 293 (293/b3)
Description: 293/b3 Cell Adhesion Assay for αvβ3 Function.
as §1

[1] = molecular target: T3, recombinant human integrin αvβ1 (Homo sapiens, UniProt P05556+P06756); assay: Solid phase receptor assay for αvβ1 function; conditions: purified integrin binding to fibronectin-coated plate
T3 construct: purchased R&D Systems 6579-AV
T3 sequence (P06756 31-889 limits assumed): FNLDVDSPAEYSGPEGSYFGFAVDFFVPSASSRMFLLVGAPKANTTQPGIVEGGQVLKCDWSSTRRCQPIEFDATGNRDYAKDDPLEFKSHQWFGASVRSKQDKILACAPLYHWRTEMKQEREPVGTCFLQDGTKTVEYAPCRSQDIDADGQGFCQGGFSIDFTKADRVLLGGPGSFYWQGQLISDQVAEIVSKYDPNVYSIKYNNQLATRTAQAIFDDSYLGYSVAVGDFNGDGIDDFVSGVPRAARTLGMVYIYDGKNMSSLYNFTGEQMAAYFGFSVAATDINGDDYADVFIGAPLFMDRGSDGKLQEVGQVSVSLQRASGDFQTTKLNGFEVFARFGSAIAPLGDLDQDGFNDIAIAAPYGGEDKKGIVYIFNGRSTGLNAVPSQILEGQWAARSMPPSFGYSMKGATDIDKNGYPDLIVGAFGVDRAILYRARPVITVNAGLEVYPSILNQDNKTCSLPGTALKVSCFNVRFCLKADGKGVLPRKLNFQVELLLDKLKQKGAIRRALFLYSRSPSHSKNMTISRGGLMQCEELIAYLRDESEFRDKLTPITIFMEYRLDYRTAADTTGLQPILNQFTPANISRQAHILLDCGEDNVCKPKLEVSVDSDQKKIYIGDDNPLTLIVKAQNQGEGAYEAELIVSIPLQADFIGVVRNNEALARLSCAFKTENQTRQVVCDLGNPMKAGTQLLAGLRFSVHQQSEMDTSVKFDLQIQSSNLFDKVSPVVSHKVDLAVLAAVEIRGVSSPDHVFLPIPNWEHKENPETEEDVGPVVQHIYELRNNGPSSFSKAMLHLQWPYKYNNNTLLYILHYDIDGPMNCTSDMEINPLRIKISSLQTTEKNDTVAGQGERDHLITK
T3 sequence (P06756 891-992 partner limits assumed): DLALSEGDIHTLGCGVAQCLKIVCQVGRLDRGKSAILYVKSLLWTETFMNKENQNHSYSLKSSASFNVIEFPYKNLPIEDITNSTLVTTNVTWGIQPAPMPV
T3 sequence (P05556 21-728 limits assumed): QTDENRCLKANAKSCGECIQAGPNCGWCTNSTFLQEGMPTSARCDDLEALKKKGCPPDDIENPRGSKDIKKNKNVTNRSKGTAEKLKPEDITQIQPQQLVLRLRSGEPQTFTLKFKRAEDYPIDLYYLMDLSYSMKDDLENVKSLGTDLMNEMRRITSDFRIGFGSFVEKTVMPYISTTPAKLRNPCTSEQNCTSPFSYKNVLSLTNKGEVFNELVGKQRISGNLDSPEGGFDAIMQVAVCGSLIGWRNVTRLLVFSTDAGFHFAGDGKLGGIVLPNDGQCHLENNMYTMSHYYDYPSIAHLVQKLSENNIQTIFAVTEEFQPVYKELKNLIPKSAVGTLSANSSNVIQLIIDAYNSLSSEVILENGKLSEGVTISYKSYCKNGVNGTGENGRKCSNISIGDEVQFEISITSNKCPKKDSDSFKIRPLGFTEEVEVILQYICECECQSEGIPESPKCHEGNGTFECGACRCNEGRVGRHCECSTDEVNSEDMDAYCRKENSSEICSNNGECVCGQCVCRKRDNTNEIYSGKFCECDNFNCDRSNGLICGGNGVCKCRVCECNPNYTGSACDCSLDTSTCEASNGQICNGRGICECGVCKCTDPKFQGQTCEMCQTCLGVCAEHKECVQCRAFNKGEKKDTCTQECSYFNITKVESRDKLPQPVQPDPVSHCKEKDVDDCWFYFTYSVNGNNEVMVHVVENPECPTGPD
Description: Purified human fibronectin (R&D Systems, Inc) diluted to 5 μg/ml in TBS buffer (25 mM Tris 7.4, 137 mM NaCl, 2.7 mM KCl, 1 mM CaCl2, 1 mM MgCl2, 1 mM MnCl2) was added to wells (50 μl/well) of a 96-well half-well transparent microtiter plate (Costar 3690), and incubated overnight at 4° C. Wells were washed 3 times with 150 μl TBS, and 150 μl of blocking buffer (TBS with 1% bovine serum albumin) were added. The plate was incubated for 1 hr at 37° C., and then washed 3× with TBS buffer. Purified recombinant human integrin αvβ1 (R&D Systems 6579-AV) was diluted to 2.0 μg/ml in TBS/0.1% bovine serum albumin. Compounds were diluted into the integrin solution and then 50 μl was added to empty wells of the washed fibronectin-coated plate, according to a standard template, with each sample repeated in triplicate. After incubation for one hour at room temperature, the plate was washed 3× with 150 μl of TBS buffer. To each well, 50 μl of 1 μg/ml biotinylated anti-alpha v antibody (R&D Systems) in TBS/0.1% BSA was added, and the plate was covered and incubated for 1 hr at room temperature. After washing the plate 3× with 150 μl of TBS buffer, 50 μl of streptavidin-conjugated horseradish peroxidase (R&D Systems) was added to the wells, and the plate incubated for 20 min at room temperature. […] Plates were read by colorimetric detection at 650 nm wavelength using a Tecan Safire II plate reader.

T2 sequence (P06756 31-889 limits assumed): as the sequence (P06756 31-889 limits assumed) above
T2 sequence (P06756 891-1048 partner limits assumed): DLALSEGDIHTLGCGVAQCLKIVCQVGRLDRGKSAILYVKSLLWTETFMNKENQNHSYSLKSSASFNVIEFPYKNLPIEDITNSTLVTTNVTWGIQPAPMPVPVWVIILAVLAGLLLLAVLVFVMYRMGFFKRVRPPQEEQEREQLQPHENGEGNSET
T2 sequence (P05106 27-788): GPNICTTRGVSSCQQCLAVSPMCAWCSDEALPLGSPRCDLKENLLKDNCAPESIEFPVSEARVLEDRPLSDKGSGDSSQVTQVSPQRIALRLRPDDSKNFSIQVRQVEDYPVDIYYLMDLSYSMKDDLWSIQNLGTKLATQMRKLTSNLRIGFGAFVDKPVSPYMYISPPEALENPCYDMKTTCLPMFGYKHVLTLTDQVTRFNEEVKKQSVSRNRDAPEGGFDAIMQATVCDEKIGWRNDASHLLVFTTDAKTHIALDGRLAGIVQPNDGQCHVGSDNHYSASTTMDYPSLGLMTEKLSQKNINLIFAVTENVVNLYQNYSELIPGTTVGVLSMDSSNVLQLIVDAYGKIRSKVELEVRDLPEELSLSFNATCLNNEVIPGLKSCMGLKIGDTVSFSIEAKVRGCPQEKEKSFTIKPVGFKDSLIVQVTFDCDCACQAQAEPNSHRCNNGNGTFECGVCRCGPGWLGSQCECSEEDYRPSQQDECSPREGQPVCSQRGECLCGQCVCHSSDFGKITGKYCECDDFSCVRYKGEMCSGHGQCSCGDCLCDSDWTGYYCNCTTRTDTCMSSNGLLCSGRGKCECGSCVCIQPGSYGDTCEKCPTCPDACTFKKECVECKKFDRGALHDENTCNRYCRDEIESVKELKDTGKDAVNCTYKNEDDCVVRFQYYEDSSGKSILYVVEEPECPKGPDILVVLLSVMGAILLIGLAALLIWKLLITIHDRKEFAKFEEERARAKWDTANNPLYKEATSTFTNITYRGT
T1 sequence (P06756 31-889 limits assumed): as the sequence (P06756 31-889 limits assumed) above
T1 sequence (P06756 891-1048 partner limits assumed): as the sequence (P06756 891-1048 partner limits assumed) above
T1 sequence (P18084 24-799): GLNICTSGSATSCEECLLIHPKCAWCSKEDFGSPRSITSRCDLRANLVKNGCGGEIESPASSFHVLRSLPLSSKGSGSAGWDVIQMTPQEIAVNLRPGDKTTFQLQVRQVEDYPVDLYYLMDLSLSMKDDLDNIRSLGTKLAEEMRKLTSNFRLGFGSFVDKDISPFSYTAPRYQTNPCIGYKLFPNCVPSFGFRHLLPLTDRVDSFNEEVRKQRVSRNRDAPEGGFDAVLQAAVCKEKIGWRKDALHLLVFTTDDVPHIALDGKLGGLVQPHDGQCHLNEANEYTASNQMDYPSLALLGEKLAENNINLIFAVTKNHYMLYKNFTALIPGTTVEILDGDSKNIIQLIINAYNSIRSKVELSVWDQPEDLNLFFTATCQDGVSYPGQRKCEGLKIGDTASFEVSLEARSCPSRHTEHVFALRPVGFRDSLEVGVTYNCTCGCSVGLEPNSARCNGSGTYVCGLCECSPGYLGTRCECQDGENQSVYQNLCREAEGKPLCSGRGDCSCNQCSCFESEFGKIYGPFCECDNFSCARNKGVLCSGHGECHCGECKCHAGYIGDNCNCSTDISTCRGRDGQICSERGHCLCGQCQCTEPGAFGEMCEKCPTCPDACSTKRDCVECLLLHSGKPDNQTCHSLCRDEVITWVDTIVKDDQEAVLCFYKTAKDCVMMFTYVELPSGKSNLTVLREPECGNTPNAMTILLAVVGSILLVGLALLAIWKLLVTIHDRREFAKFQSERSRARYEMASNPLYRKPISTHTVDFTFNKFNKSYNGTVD

## CC(C)(C)c1cc(Br)cc([C@H](CC(=O)O)NC(=O)CNC(=O)c2cc(O)cc(NC3=NCC(O)CN3)c2)c1 (stereo partly drawn) [Example 1, (3S)—N-[3-hydroxy-5-[(1,4,5,6-tetrahydro-5-hydroxy-2-pyrimidinyl)amino]benzoyl]glycyl-3-(3-bromo-5-tert-butylphenyl)-β-alanine]
αvβ5
  IC50: 51.7 nM
αvβ3
  IC50: 0.8 nM
[1]
  IC50: 2.5 nM
